From patent US11655225B2, “Antimycobacterial heterocyclic amides” (Crestone, Inc., priority 2018, dated 2023)
Converted amounts (≈) assume the structure as drawn.

What follows are compounds tested on M. abscessus (assay: MIC determination, CLSI M24-A). Conditions: Mycobacteroides abscessus, CLSI M24-A.
Assay type: cell-based
`CC12CC3CC(C)(C1)CC(C(=O)Nc1nc4ccc(Br)cc4o1)(C3)C2` [Example 115, N-(6-bromo-1,3-benzoxazol-2-yl)-3,5-dimethyladamantane-1-carboxamide] showed an MIC of 2 to 32 µg/mL (≈ 4.96 to 79.3 µM).
In the case of `CC1(C(=O)Nc2nc3ccc(OC(F)F)cc3s2)CCCCC1` [Example 172, N-[6-(difluoromethoxy)-1,3-benzothiazol-2-yl]-1-methylcyclohexane-1-carboxamide], the MIC is reported as 2 to 32 µg/mL (≈ 5.88 to 94 µM).
`O=C(Nc1nc2ccc(OC(F)(F)F)cc2s1)C1CCCC1` [Example 130, N-[6-(trifluoromethoxy)-1,3-benzothiazol-2-yl]cyclopentanecarboxamide] showed an MIC of 2 to 32 µg/mL (≈ 6.05 to 96.9 µM).
Work on `O=C(Nc1nc2ccc(C(F)(F)F)cc2s1)C1CCCC(C(F)(F)F)C1` (centres unmarked) [Example 126, 3-(trifluoromethyl)-N-[6-(trifluoromethyl)-1,3-benzothiazol-2-yl]cyclohexane-1-carboxamide] yielded an MIC of 2 to 32 µg/mL (≈ 5.05 to 80.7 µM).
Compound `CC1(C(=O)Nc2nc3cc(F)cc(F)c3s2)CCCCC1` [Example 133, N-(5,7-difluoro-1,3-benzothiazol-2-yl)-1-methylcyclohexane-1-carboxamide] has an MIC of 2 to 32 µg/mL (≈ 6.44 to 103 µM).
`CC1CC(C(=O)Nc2nc3cc(Cl)c(Cl)cc3o2)CC(C)(C)C1` (centres unmarked) [Example 113, N-(5,6-dichloro-1,3-benzoxazol-2-yl)-3,3,5-trimethylcyclohexane-1-carboxamide] showed an MIC of 2 to 32 µg/mL (≈ 5.63 to 90.1 µM).
Work on `CC1(C(=O)Nc2nc3ccc(C(F)(F)F)cc3s2)CCCC1` [Example 128, 1-methyl-N-[6-(trifluoromethyl)-1,3-benzothiazol-2-yl]cyclopentane-1-carboxamide] yielded an MIC of 2 to 32 µg/mL (≈ 6.09 to 97.5 µM).
Work on `CC12CC3CC(C)(C1)CC(C(=O)Nc1nc4ccc(Cl)cc4o1)(C3)C2` [Example 117, N-(6-chloro-1,3-benzoxazol-2-yl)-3,5-dimethyladamantane-1-carboxamide] yielded an MIC of 2 to 32 µg/mL (≈ 5.57 to 89.2 µM).
For `CC12CC3CC(C)(C1)CC(C(=O)Nc1nc4c(F)cccc4s1)(C3)C2` [Example 122, N-(4-fluoro-1,3-benzothiazol-2-yl)-3,5-dimethyladamantane-1-carboxamide], the MIC was 2 to 32 µg/mL (≈ 5.58 to 89.3 µM).
`CC1CCCC(C(=O)Nc2nc3c(Cl)cccc3s2)C1` (centres unmarked) [Example 167, N-(4-chloro-1,3-benzothiazol-2-yl)-3-methylcyclohexane-1-carboxamide] gave an MIC of 2 to 32 µg/mL (≈ 6.48 to 104 µM).
`CC12CCCC(C(=O)Nc3nc4cc(Cl)cc(Cl)c4o3)(CCC1)C2` [Example 184, N-(5,7-dichloro-1,3-benzoxazol-2-yl)-5-methylbicyclo[3.3.1]nonane-1-carboxamide] showed an MIC of 2 to 32 µg/mL (≈ 5.45 to 87.1 µM).
For `CC1CC(C(=O)Nc2nc3cc(Cl)c(Cl)cc3[nH]2)CC(C)(C)C1` (centres unmarked) [Example 151, N-(5,6-dichloro-1H-1,3-benzodiazol-2-yl)-3,3,5-trimethylcyclohexane-1-carboxamide], the MIC was 2 to 32 µg/mL (≈ 5.65 to 90.3 µM).
For `CC12CC3CC(C)(C1)CC(C(=O)Nc1nc4cc(F)c(F)cc4[nH]1)(C3)C2` [Example 119, N-(5,6-difluoro-1H-1,3-benzodiazol-2-yl)-3,5-dimethyladamantane-1-carboxamide], the MIC was 2 to 32 µg/mL (≈ 5.56 to 89 µM).
Work on `CC1(C(=O)Nc2nc3ccc(OC(F)(F)F)cc3s2)CCCC1` [Example 136, 1-methyl-N-[6-(trifluoromethoxy)-1,3-benzothiazol-2-yl]cyclopentane-1-carboxamide] yielded an MIC of 2 to 32 µg/mL (≈ 5.81 to 92.9 µM).
In the case of `CC12CC3CC(C)(C1)CC(C(=O)Nc1nc4cc(Cl)c(Cl)cc4[nH]1)(C3)C2` [Example 164, N-(5,6-dichloro-1H-1,3-benzodiazol-2-yl)-3,5-dimethyladamantane-1-carboxamide], the MIC is reported as 2 to 32 µg/mL (≈ 5.1 to 81.6 µM).
`CC12CC3CC(C)(C1)CC(C(=O)Nc1nc4ccc(F)cc4s1)(C3)C2` [Example 123, N-(6-fluoro-1,3-benzothiazol-2-yl)-3,5-dimethyladamantane-1-carboxamide] gave an MIC of 2 to 32 µg/mL (≈ 5.58 to 89.3 µM).
For `CCOc1ccc2nc(NC(=O)C34CC5CC(C)(CC(C)(C5)C3)C4)sc2c1` [Example 111, N-(6-ethoxy-1,3-benzothiazol-2-yl)-3,5-dimethyladamantane-1-carboxamide], the MIC was 2 to 32 µg/mL (≈ 5.2 to 83.2 µM).
In the case of `O=C(Nc1nc2c(F)cc(F)cc2s1)C1CCCCC1` [Example 157, N-(4,6-difluoro-1,3-benzothiazol-2-yl)cyclohexanecarboxamide], the MIC is reported as 2 to 32 µg/mL (≈ 6.75 to 108 µM).
For `CC1CC(C(=O)Nc2nc3cc(Cl)ccc3o2)CC(C)(C)C1` (centres unmarked) [Example 114, N-(5-chloro-1,3-benzoxazol-2-yl)-3,3,5-trimethylcyclohexane-1-carboxamide], the MIC was 2 to 32 µg/mL (≈ 6.23 to 99.7 µM).
Compound `CC1(C(=O)Nc2nc3ccc(Br)cc3s2)CCCCC1` [Example 134, N-(6-bromo-1,3-benzothiazol-2-yl)-1-methylcyclohexane-1-carboxamide] has an MIC of 2 to 32 µg/mL (≈ 5.66 to 90.6 µM).
For `O=C(Nc1nc2ccccc2o1)C1CC2CCCC(C2)C1` (centres unmarked) [Example 159, N-(1,3-benzoxazol-2-yl)bicyclo[3.3.1]nonane-3-carboxamide], the MIC was 2 to 32 µg/mL (≈ 7.03 to 113 µM).
`CC1(C(=O)Nc2nc3c(F)c(F)c(F)cc3s2)CCCCCC1` [Example 103, 1-methyl-N-(4,5,6-trifluoro-1,3-benzothiazol-2-yl)cycloheptane-1-carboxamide] was tested, and the MIC was 2 to 32 µg/mL (≈ 5.84 to 93.5 µM).
`CC12CC3CC(C)(C1)CC(C(=O)Nc1nc4cc(Cl)ccc4o1)(C3)C2` [Example 140, N-(5-chloro-1,3-benzoxazol-2-yl)-3,5-dimethyladamantane-1-carboxamide] was tested, and the MIC was 2 to 32 µg/mL (≈ 5.57 to 89.2 µM).
`CC1CC(C(=O)Nc2nc3ccc(Cl)cc3o2)CC(C)(C)C1` (centres unmarked) [Example 118, N-(6-chloro-1,3-benzoxazol-2-yl)-3,3,5-trimethylcyclohexane-1-carboxamide] was tested, and the MIC was 2 to 32 µg/mL (≈ 6.23 to 99.7 µM).
`CC1CCCC(C(=O)Nc2nc3c(F)cc(F)cc3s2)C1` (centres unmarked) [Example 169, N-(4,6-difluoro-1,3-benzothiazol-2-yl)-3-methylcyclohexane-1-carboxamide] showed an MIC of 2 to 32 µg/mL (≈ 6.44 to 103 µM).
For `CC12CC3CC(C)(C1)CC(C(=O)Nc1nc4cc(Cl)c(Cl)cc4o1)(C3)C2` [Example 112, N-(5,6-dichloro-1,3-benzoxazol-2-yl)-3,5-dimethyladamantane-1-carboxamide], the MIC was 2 to 32 µg/mL (≈ 5.08 to 81.4 µM).
Compound `O=C(Nc1nc2ccc(C(F)(F)F)cc2s1)C1CCCC2(CC2)C1` (centres unmarked) [Example 148, N-[6-(trifluoromethyl)-1,3-benzothiazol-2-yl]spiro[2.5]octane-5-carboxamide] has an MIC of 2 to 32 µg/mL (≈ 5.64 to 90.3 µM).
For `O=C(Nc1nc2ccc(OC(F)F)cc2s1)C1CCCCCCC1` [Example 108, N-[6-(difluoromethoxy)-1,3-benzothiazol-2-yl]cyclooctanecarboxamide], the MIC was 2 to 32 µg/mL (≈ 5.64 to 90.3 µM).
`CC1CC(C(=O)Nc2nc3c(F)cccc3s2)CC(C)(C)C1` (centres unmarked) [Example 121, N-(4-fluoro-1,3-benzothiazol-2-yl)-3,3,5-trimethylcyclohexane-1-carboxamide] showed an MIC of 2 to 32 µg/mL (≈ 6.24 to 99.9 µM).
`O=C(Nc1nc2ccc(Cl)cc2s1)C12CC3CC(CC(C3)C1)C2` [Example 107, N-(6-chloro-1,3-benzothiazol-2-yl)adamantane-1-carboxamide] gave an MIC of 2 to 32 µg/mL (≈ 5.77 to 92.3 µM).
For `CC1(C(=O)Nc2nc3ccc(OC(F)(F)F)cc3s2)CC2CCC1O2` (centres unmarked) [Example 185, 2-methyl-N-[6-(trifluoromethoxy)-1,3-benzothiazol-2-yl]-7-oxabicyclo[2.2.1]heptane-2-carboxamide], the MIC was 2 to 32 µg/mL (≈ 5.37 to 85.9 µM).
`CC1CC(C(=O)Nc2nc3ccc(Br)cc3o2)CC(C)(C)C1` (centres unmarked) [Example 158, N-(6-bromo-1,3-benzoxazol-2-yl)-3,3,5-trimethylcyclohexane-1-carboxamide] showed an MIC of 2 to 32 µg/mL (≈ 5.48 to 87.6 µM).
Compound `CC1CC(C(=O)Nc2nc3ccc(C(F)(F)F)cc3o2)CC(C)(C)C1` (centres unmarked) [Example 163, 3,3,5-trimethyl-N-[6-(trifluoromethyl)-1,3-benzoxazol-2-yl]cyclohexane-1-carboxamide] has an MIC of 2 to 32 µg/mL (≈ 5.64 to 90.3 µM).
`CC12CCCC(C(=O)Nc3nc4ccc(C(F)(F)F)cc4o3)(CCC1)C2` [Example 132, 5-methyl-N-[6-(trifluoromethyl)-1,3-benzoxazol-2-yl]bicyclo[3.3.1]nonane-1-carboxamide] was tested, and the MIC was 2 to 32 µg/mL (≈ 5.46 to 87.3 µM).
`COc1ccc2nc(NC(=O)C3CCCC(C)C3)sc2c1` (centres unmarked) [Example 181, N-(6-methoxy-1,3-benzothiazol-2-yl)-3-methylcyclohexane-1-carboxamide] showed an MIC of 2 to 32 µg/mL (≈ 6.57 to 105 µM).
In the case of `O=C(Nc1nc2ccccc2o1)C12CC3CC(CC(C3)C1)C2` [Example 155, N-(1,3-benzoxazol-2-yl)adamantane-1-carboxamide], the MIC is reported as 2 to 32 µg/mL (≈ 6.75 to 108 µM).
In the case of `O=C(Nc1nc2ccccc2o1)C1C2CC3CC(C2)CC1C3` (centres unmarked) [Example 131, N-(1,3-benzoxazol-2-yl)adamantane-2-carboxamide], the MIC is reported as 2 to 32 µg/mL (≈ 6.75 to 108 µM).
`CC1CCCC(C(=O)Nc2nc3ccccc3s2)C1` (centres unmarked) [Example 182, N-(1,3-benzothiazol-2-yl)-3-methylcyclohexane-1-carboxamide] was tested, and the MIC was 2 to 32 µg/mL (≈ 7.29 to 117 µM).
`O=C(Nc1nc2ccccc2o1)C1CCCCCCC1` [Example 187, N-(1,3-benzoxazol-2-yl)cyclooctanecarboxamide] was tested, and the MIC was 2 to 32 µg/mL (≈ 7.34 to 117 µM).
Compound `CC(C)(C)C(=O)Nc1nc2ccc(OC(F)(F)F)cc2s1` [Example 173, 2,2-dimethyl-N-[6-(trifluoromethoxy)-1,3-benzothiazol-2-yl]propanamide] has an MIC of 2 to 32 µg/mL (≈ 6.28 to 101 µM).
Work on `CC1CCCC(C(=O)Nc2nc3ccc(C(F)(F)F)cc3s2)C1` (centres unmarked) [Example 127, 3-methyl-N-[6-(trifluoromethyl)-1,3-benzothiazol-2-yl]cyclohexane-1-carboxamide] yielded an MIC of 2 to 32 µg/mL (≈ 5.84 to 93.5 µM).
`CC12CC3CC(C)(C1)CC(C(=O)Nc1nc4ccc(F)cc4[nH]1)(C3)C2` [Example 120, N-(6-fluoro-1H-1,3-benzodiazol-2-yl)-3,5-dimethyladamantane-1-carboxamide] was tested, and the MIC was 2 to 32 µg/mL (≈ 5.86 to 93.7 µM).
`CC1CCC(C(=O)Nc2nc3ccc(C(F)(F)F)cc3s2)C1` (centres unmarked) [Example 152, 3-methyl-N-[6-(trifluoromethyl)-1,3-benzothiazol-2-yl]cyclopentane-1-carboxamide] was tested, and the MIC was 2 to 32 µg/mL (≈ 6.09 to 97.5 µM).
`CC1CC(C(=O)Nc2nc3c(Cl)cccc3s2)CC(C)(C)C1` (centres unmarked) [Example 179, N-(4-chloro-1,3-benzothiazol-2-yl)-3,3,5-trimethylcyclohexane-1-carboxamide] gave an MIC of 2 to 32 µg/mL (≈ 5.94 to 95 µM).
`CC12CC3CC(C)(C1)CC(C(=O)Nc1nc4c(F)cccc4o1)(C3)C2` [Example 144, N-(4-fluoro-1,3-benzoxazol-2-yl)-3,5-dimethyladamantane-1-carboxamide] gave an MIC of 2 to 32 µg/mL (≈ 5.84 to 93.5 µM).
`O=C(Nc1cc2ccccc2s1)C1CCCCCC1` [Example 160, N-(1-benzothiophen-2-yl)cycloheptanecarboxamide] was tested, and the MIC was 2 to 32 µg/mL (≈ 7.32 to 117 µM).
`O=C(Nc1cc2ccccc2s1)C1CCCCC1` [Example 176, N-(1-benzothiophen-2-yl)cyclohexanecarboxamide] gave an MIC of 2 to 32 µg/mL (≈ 7.71 to 123 µM).
